The source of these data is ChEMBL document CHEMBL1128821, “Evaluation of differential hypoxic cytotoxicity and electrochemical studies of nitro 5-deazaflavins” (Bioorg Med Chem Lett, 1995).

Each structure is given as a SMILES string.

Assay [1] has as its system V79. Nature of the assay: Differential hypoxic cytotoxicity towards chinese hamster cells (V79) using MTT assay under anaerobic conditions. The format is functional, cell-based. The following applies: Cricetulus griseus. In general terms: Tetrazolium dyes change colour on reduction, which living cells bring about.
For assay [2], the system named is V79. Nature of the assay: Differential hypoxic cytotoxicity towards chinese hamster cells (V79) using MTT assay under aerobic conditions. The format is functional, cell-based. The note with it: Cricetulus griseus.

Turning to `CCCCCCCCCCCCn1c2nc(=O)[nH]c(=O)c-2cc2cc([N+](=O)[O-])ccc21`, the values for the IC50 in assay [1] and in assay [2] were 22 µM and 16 µM, respectively.
The like results for `CCCCCCCCn1c2nc(=O)n(-c3ccccc3)c(=O)c-2cc2ccc([N+](=O)[O-])cc21` were, in that order, 1.2 µM and 6.1 µM.
The like results for `CCCCCCCCCCCCn1c2nc(=O)[nH]c(=O)c-2cc2ccc([N+](=O)[O-])cc21` were, in that order, 190 µM and 300 µM.
The like results for `CCCCCCCCn1c2nc(=O)n(-c3ccccc3)c(=O)c-2cc2ccccc21` were, in that order, more than 1000 µM and more than 1000 µM.
As to `CCCCCCCCn1c2nc(=O)n(-c3ccccc3)c(=O)c-2cc2cccc([N+](=O)[O-])c21`, the IC50 (commonly the concentration needed to halve the response being measured) in assay [1] was determined as 3.7 µM; in assay [2], 1.7 µM.
The like results for `CCCCCCCCCCCCn1c2nc(=O)n(C)c(=O)c-2cc2ccc([N+](=O)[O-])cc21` were, in that order, 61 µM and 130 µM.
The like results for `CCCCCCCCCCCCn1c2nc(=O)[nH]c(=O)c-2cc2cccc([N+](=O)[O-])c21` were, in that order, 3.6 µM and 1.9 µM.
As to `CCCCCCCCn1c2nc(=O)n(-c3ccccc3)c(=O)c-2cc2c([N+](=O)[O-])cccc21`, the IC50 is 0.56 µM in assay [1] and 3.6 µM in assay [2].
The like results for `CCCCCCCCCCCCn1c2nc(=O)[nH]c(=O)c-2cc2c([N+](=O)[O-])cccc21` were, in that order, 1.1 µM and 4.3 µM.
`CCCCCCCCCCCCn1c2nc(=O)n(C)c(=O)c-2cc2cc([N+](=O)[O-])ccc21`: the IC50 in assay [1] and in assay [2] was more than 1000 µM in each case.
On to `CCCCCCCCCCCCn1c2nc(=O)[nH]c(=O)c-2cc2ccccc21`, for which the concentration for half-maximal inhibition (IC50) in assay [1] and in assay [2] was more than 1000 µM throughout.
`CCCCCCCCCCCCn1c2nc(=O)n(C)c(=O)c-2cc2cccc([N+](=O)[O-])c21`: the IC50 in assay [1] and in assay [2] was more than 1000 µM in each case.
Take `CCCCCCCCCCCCn1c2nc(=O)n(C)c(=O)c-2cc2c([N+](=O)[O-])cccc21`: the IC50 in assay [1] is 2.9 µM; in assay [2], 7.2 µM.
As to `CCCCCCCCn1c2nc(=O)n(-c3ccccc3)c(=O)c-2cc2cc([N+](=O)[O-])ccc21`, the IC50 in assay [1] is 19 µM; in assay [2], 27 µM.
The like results for `CCCCCCCCCCCCn1c2nc(=O)n(C)c(=O)c-2cc2ccccc21` were, in that order, more than 1000 µM and more than 1000 µM.
The like results for `NC(=O)N/N=C/c1ccc([N+](=O)[O-])o1` [NITROFURAZONE] were, in that order, 270 µM and 740 µM.
